Values quoted from earlier work, collected in publication PMC3201700 (Journal of agricultural and food chemistry, 2011).
Where two headings read alike, the source gives them in different places.

Legend:
MRP1 and MRP2 = settings: SFN compared with ERN
[1] = rats

Recovery of the dose in the urine after 24 h ([1]; by gavage) [%] | Recovery of the dose in the urine after 24 h ([1]; in the diet) [%] | SMILES | Induction of MRP1 and MRP2 (phase III detoxification) (MRP1 and MRP2)
 |  | C[S+]([O-])CCCCN=C=S (stereo not drawn) [SFN, sulforaphane] | substantially more potent than ERN
27.6 | 23.8 | C[S+]([O-])CCCC/C(=N\OS(=O)(=O)O)S[C@@H]1O[C@H](CO)[C@@H](O)[C@H](O)[C@H]1O (stereo partly drawn) [glucoraphanin] | 
